According to patent US20100130522A1, “COMPOUNDS FOR INFLAMMATION AND IMMUNE-RELATED USES” (Synta Pharmaceuticals Corp., priority 2008, published 2010):
Counter-ions that a name gives are not always drawn.

Legend:
[1] = test system: IL-2 production, Jurkat cells; experiment: Inhibition of IL-2 production in PHA-activated Jurkat cells (ELISA); format: cell-based; conditions: Homo sapiens, 1% FBS, given as activity class
Description: Jurkat cells were placed in a 96 well plate (0.5 million cells per well in 1% FBS medium), and then a test compound of this invention was added at different concentrations. After 10 minutes, the cells were activated with PHA (final concentration 2.5 μg/mL) and incubated for 20 hours at 37° C. under 5% CO2. The final volume was 200 μL. Following incubation, the cells were centrifuged, and the supernatants collected and stored at −70° C. prior to assaying for IL-2 production. A commercial ELISA kit (IL-2 Eli-pair, Diaclone Research, Besancon, France) was used to detect production of IL-2, from which dose response curves were obtained. The IC50 value was calculated as the concentration at which 50% of maximum IL-2 production after stimulation was inhibited versus a non-stimulation control.

[2] = target: T1, CRACM1/STIM1-CHOK1 (Homo sapiens, UniProt Q96D31); experiment: Patch clamp inhibition of ICRAC current in CRACM1/STIM1-CHOK1 cells; format: cell-based; conditions: 500 nM; given as activity class
T1 construct: Full length human Stim1, CracM1, CracM2 and CracM3 cDNA; Stim1 induced with doxycycline
Description: Manual patch clamp experiments are conducted in the tight-seal whole-cell configuration at room temperature (21-25° C.). Patch pipettes are fashioned from borosilicate glass capillary tubes and have resistances between 2-4 MΩ after filling with standard intracellular solution. High resolution current recordings are acquired with a computer-based patch clamp amplifier system (EPC-10, HEKA, Lambrecht, Germany). All voltages are corrected for a liquid junction potential of 10 mV between external and internal solutions with glutamate as the intracellular anion. Currents are filtered at 2.9 kHz and digitized at 10 μs intervals. Capacitive currents and series resistance are determined and corrected before each voltage ramp using the automatic capacitance compensation of the EPC-10.
Automated patch clamp experiments are conducted with the QPatch 16 (Sophion Bioscience, Ballerup, Denmark) at room temperature (21-25° C.). Immediately following the establishment of giga-seal whole-cell configuration, the cells membrane potential is clamped at 0 mV. Voltage ramps of 50 ms duration spanning the voltage range of −100 to +100 mV are then stimulated at a rate of 0.33 Hz. Currents are filtered at 2.9 kHz and digitized at 200 μs intervals. Capacitive currents and series resistance are determined and corrected before each voltage ramp using the automatic capacitance compensation.
In general, a whole cell patch clamp method is used to examine the effects of a compound of the invention on a channel(s) that mediates ICRAC. In such experiments, a baseline ICRAC measurement is established within the first 70 voltage ramps, or 140 seconds, for a patched cell. Then the cells are perfused with the compound to be tested and the effect of the compound on ICRAC is measured for at least an additional 440 to 500 seconds. A compound that modulates ICRAC (e.g., inhibits) is a compound that is useful in the invention for modulating CRAG ion channel activity.
Off-line analysis with the Heka PatchMaster software is used to separate the ICRAC membrane current from the cells basal background currents. In a typical recording, InsP3 stimulated ICRAC currents begin to develop in 6 to 12 seconds after whole cell is established. Therefore, the first 1-4 voltage ramps represent the basal membrane currents in the absence of ICRAC and the average value is subtracted from all subsequent traces. The current value at −80 mV for each ramp trace is then measured and plotted against time. The resulting current versus time data is exported into a Microsoft Excel spreadsheet. The % ICRAC inhibition in each cell is calculated by comparing the amount of current just prior to the compound perfusion to the amount of current after the cells has been perfused with the compound for 440-500 seconds. The IC50 value and Hill coefficient for each compound is estimated by fitting all the individual data points to a single-site Hill equation.
TREx™-CHO cells were transfected with human Stim1 (recombinant DNA in pcDNA4/TO/myc-His™ A with a myc epitope tag in the N-terminal) and either CracM1, CracM2 or CracM3 (recombinant DNA in pcDNA 3.1 with a HA epitope tag in the N-terminal). Stably expressing cells were selected by growing the transfected cells in antibiotics for two to three weeks. Individual cell clones were isolated via serial dilution. Full length human Stim1, CracM1, CracM2 and CracM3 cDNA, TREx™-CHO cells, pcDNA4/TO/myc-His™ A and pcDNA 3.1 were purchased from Invitrogen (Carlsbad, Calif.). All cells clones are grown in Ham's F-12 media supplemented with 10% fetal bovine serum, penicillin 100 U/ml, streptomycin 100 ? g/ml, Zeocin™ (200 ? g/ml), Geneticin (500 ? g/ml) and blasticidin (10 ? g/ml) in an atmosphere of 95% air/5% CO2. Stim1 expression was induced with doxycycline (1 ? g/ml) for 16-20 hrs. […]

T1 sequence (Q96D31 whole entry): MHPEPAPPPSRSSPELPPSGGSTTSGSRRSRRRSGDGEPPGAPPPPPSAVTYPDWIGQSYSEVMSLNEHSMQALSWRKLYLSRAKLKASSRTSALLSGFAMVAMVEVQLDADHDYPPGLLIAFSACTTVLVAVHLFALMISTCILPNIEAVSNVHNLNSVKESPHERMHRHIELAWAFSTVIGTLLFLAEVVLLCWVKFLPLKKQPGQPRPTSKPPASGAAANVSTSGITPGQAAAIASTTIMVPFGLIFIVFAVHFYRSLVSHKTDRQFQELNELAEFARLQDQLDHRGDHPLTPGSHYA

SMILES | IC50 [1] [nM] | inhibition at 0.5 µM [2] [%]
Cc1ccc(-c2nc(-c3cccnc3)cs2)cc1-c1ccc(NC(=O)c2c(F)cccc2F)cc1 [Compound 19, 2,6-difluoro-N-(2′-methyl-5′-(4-(pyridin-3-yl)thiazol-2-yl)biphenyl-4-yl)benzamide hydrochloride] | < 50 | < 50
Cc1ccc(-c2nc(-c3cccnc3)cs2)cc1-c1cnc(NC(=O)c2c(F)cccc2F)cn1 [Compound 20, 2,6-difluoro-N-(5-(2-methyl-5-(4-(pyridin-3-yl)thiazol-2-yl)phenyl)pyrazin-2-yl)benzamide] | < 50 | 70 to 100
Cc1ccc(-c2ncc(-c3cnco3)s2)cc1-c1ccc(NC(=O)c2c(F)cccc2F)cc1 [Compound 21, 2,6-difluoro-N-(2′-methyl-5′-(5-(oxazol-5-yl)thiazol-2-yl)biphenyl-4-yl)benzamide] | 50 to 100 | < 50
COc1ccc(-c2ccc(C)c(-c3ccc(NC(=O)c4c(F)cccc4F)cc3)c2)cn1 [Compound 22, 2,6-difluoro-N-(5′-(6-methoxypyridin-3-yl)-2′-methylbiphenyl-4-yl)benzamide] | < 50 | 70 to 100
